Results as given in ChEMBL document CHEMBL1955750, “Benzodiazepines and benzotriazepines as protein interaction inhibitors targeting bromodomains of the BET family” (Bioorg Med Chem, 2012).
Activity calls are given as the source filed them. The rule behind the calls is not given here.

How the values were obtained:
[1] = target: Bromodomain-containing protein 2 (Homo sapiens) (UniProt P25440); assay: Binding affinity to BRD2-BD1 assessed as change in melting temperature at 100 uM by protein stability shift assay
[2] = target: Bromodomain-containing protein 3 (Homo sapiens) (UniProt Q15059); assay: Binding affinity to BRD3-BD1 assessed as change in melting temperature at 100 uM by protein stability shift assay
[3] = target: T1, Bromodomain-containing protein 4 (Homo sapiens, UniProt O60885); assay: Binding affinity to BRD4-BD1 assessed as change in melting temperature at 100 uM by protein stability shift assay
[4] = target: Bromodomain testis-specific protein (Homo sapiens) (UniProt Q58F21); assay: Binding affinity to BRDT-BD1 assessed as change in melting temperature at 100 uM by protein stability shift assay
[5] = target: Bromodomain adjacent to zinc finger domain protein 2B (Homo sapiens) (UniProt Q9UIF8); assay: Binding affinity to BAZ2B assessed as change in melting temperature at 100 uM by protein stability shift assay
[6] = target: CREB-binding protein (Homo sapiens) (UniProt Q92793); assay: Binding affinity to CREBBP assessed as change in melting temperature at 100 uM by protein stability shift assay
[7] = Binding affinity to LOC93349 assessed as change in melting temperature at 100 uM by protein stability shift assay
[8] = target: Protein polybromo-1 (Homo sapiens) (UniProt Q86U86); assay: Binding affinity to PB1 assessed as change in melting temperature at 100 uM by protein stability shift assay
[9] = target: Histone acetyltransferase KAT2B (Homo sapiens) (UniProt Q92831); assay: Binding affinity to PCAF assessed as change in melting temperature at 100 uM by protein stability shift assay
[10] = target: Bromodomain-containing protein 2 (Homo sapiens) (UniProt P25440); assay: Binding affinity to BRD2-BD1 assessed as change in melting temperature at 10 uM by protein stability shift assay
[11] = target: Bromodomain-containing protein 3 (Homo sapiens) (UniProt Q15059); assay: Binding affinity to BRD3-BD1 assessed as change in melting temperature at 10 uM by protein stability shift assay
[12] = target: T1, Bromodomain-containing protein 4; assay: Binding affinity to BRD4-BD1 assessed as change in melting temperature at 10 uM by protein stability shift assay
[13] = target: Bromodomain testis-specific protein (Homo sapiens) (UniProt Q58F21); assay: Binding affinity to BRDT-BD1 assessed as change in melting temperature at 10 uM by protein stability shift assay
[14] = target: Bromodomain adjacent to zinc finger domain protein 2B (Homo sapiens) (UniProt Q9UIF8); assay: Binding affinity to BAZ2B assessed as change in melting temperature at 10 uM by protein stability shift assay
[15] = target: CREB-binding protein (Homo sapiens) (UniProt Q92793); assay: Binding affinity to CREBBP assessed as change in melting temperature at 10 uM by protein stability shift assay
[16] = Binding affinity to LOC93349 assessed as change in melting temperature at 10 uM by protein stability shift assay
[17] = target: Protein polybromo-1 (Homo sapiens) (UniProt Q86U86); assay: Binding affinity to PB1 assessed as change in melting temperature at 10 uM by protein stability shift assay
[18] = target: Histone acetyltransferase KAT2B (Homo sapiens) (UniProt Q92831); assay: Binding affinity to PCAF assessed as change in melting temperature at 10 uM by protein stability shift assay
[19] = target: Bromodomain-containing protein 2 (Homo sapiens) (UniProt P25440); assay: Binding affinity to BRD2-BD2 assessed as change in melting temperature at 100 uM by protein stability shift assay
[20] = target: Bromodomain-containing protein 3 (Homo sapiens) (UniProt Q15059); assay: Binding affinity to BRD3-BD2 assessed as change in melting temperature at 100 uM by protein stability shift assay
[21] = target: T1, Bromodomain-containing protein 4; assay: Binding affinity to BRD4-BD2 assessed as change in melting temperature at 100 uM by protein stability shift assay
[22] = target: Bromodomain-containing protein 2 (Homo sapiens) (UniProt P25440); assay: Binding affinity to BRD2-BD2 assessed as change in melting temperature at 10 uM by protein stability shift assay
[23] = target: Bromodomain-containing protein 3 (Homo sapiens) (UniProt Q15059); assay: Binding affinity to BRD3-BD2 assessed as change in melting temperature at 10 uM by protein stability shift assay
[24] = target: T1, Bromodomain-containing protein 4; assay: Binding affinity to BRD4-BD2 assessed as change in melting temperature at 10 uM by protein stability shift assay
[25] = target: T1, Bromodomain-containing protein 4
Description: Binding affinity to BRD4-BD1 assessed as change in melting temperature by isothermal titration calorimetry

Chain of Bromodomain-containing protein 3 (Homo sapiens) (Q15059 2-726 limits assumed): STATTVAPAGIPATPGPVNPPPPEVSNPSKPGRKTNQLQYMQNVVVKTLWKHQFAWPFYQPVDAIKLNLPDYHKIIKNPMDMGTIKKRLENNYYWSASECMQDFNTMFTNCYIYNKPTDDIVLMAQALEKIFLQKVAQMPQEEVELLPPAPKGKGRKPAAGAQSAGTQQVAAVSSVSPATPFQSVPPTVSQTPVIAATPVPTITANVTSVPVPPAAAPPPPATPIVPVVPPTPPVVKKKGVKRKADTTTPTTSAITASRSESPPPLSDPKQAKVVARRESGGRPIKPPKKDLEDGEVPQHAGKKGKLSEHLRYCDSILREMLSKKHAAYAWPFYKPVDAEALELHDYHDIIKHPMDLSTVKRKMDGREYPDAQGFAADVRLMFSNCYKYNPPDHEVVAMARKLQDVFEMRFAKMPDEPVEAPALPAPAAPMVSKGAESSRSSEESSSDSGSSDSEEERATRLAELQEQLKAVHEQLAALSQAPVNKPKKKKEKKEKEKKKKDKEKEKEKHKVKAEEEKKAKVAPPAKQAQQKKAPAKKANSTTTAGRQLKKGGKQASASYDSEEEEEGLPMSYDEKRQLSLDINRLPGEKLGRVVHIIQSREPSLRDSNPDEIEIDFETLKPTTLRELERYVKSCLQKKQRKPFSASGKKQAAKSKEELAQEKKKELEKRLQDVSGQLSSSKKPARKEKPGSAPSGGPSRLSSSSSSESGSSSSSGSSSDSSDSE
Chain of Bromodomain-containing protein 2 (Homo sapiens) (P25440 whole entry, looked up): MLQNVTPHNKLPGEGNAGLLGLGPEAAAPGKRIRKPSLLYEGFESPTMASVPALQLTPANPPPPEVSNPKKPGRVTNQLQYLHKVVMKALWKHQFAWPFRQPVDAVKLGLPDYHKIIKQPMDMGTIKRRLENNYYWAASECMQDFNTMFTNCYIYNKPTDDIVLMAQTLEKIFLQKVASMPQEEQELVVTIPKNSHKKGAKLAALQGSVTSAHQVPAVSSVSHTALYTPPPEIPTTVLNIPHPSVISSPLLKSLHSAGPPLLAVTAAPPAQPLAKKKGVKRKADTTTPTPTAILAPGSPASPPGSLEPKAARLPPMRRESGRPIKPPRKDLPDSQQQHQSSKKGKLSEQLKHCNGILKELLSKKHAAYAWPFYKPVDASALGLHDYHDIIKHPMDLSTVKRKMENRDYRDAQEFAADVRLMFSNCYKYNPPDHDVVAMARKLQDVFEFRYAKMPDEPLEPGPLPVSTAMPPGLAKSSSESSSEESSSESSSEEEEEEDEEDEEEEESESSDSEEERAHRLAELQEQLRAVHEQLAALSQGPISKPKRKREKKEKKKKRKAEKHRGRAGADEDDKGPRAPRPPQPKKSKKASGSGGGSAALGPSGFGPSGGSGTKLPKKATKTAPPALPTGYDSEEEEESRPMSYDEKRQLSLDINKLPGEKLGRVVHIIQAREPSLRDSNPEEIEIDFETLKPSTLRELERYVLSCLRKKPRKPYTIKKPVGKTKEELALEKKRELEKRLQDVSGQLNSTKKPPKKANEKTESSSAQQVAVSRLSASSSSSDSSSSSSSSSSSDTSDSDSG
Chain of Bromodomain adjacent to zinc finger domain protein 2B (Homo sapiens) (Q9UIF8 whole entry, the tested form may be a part): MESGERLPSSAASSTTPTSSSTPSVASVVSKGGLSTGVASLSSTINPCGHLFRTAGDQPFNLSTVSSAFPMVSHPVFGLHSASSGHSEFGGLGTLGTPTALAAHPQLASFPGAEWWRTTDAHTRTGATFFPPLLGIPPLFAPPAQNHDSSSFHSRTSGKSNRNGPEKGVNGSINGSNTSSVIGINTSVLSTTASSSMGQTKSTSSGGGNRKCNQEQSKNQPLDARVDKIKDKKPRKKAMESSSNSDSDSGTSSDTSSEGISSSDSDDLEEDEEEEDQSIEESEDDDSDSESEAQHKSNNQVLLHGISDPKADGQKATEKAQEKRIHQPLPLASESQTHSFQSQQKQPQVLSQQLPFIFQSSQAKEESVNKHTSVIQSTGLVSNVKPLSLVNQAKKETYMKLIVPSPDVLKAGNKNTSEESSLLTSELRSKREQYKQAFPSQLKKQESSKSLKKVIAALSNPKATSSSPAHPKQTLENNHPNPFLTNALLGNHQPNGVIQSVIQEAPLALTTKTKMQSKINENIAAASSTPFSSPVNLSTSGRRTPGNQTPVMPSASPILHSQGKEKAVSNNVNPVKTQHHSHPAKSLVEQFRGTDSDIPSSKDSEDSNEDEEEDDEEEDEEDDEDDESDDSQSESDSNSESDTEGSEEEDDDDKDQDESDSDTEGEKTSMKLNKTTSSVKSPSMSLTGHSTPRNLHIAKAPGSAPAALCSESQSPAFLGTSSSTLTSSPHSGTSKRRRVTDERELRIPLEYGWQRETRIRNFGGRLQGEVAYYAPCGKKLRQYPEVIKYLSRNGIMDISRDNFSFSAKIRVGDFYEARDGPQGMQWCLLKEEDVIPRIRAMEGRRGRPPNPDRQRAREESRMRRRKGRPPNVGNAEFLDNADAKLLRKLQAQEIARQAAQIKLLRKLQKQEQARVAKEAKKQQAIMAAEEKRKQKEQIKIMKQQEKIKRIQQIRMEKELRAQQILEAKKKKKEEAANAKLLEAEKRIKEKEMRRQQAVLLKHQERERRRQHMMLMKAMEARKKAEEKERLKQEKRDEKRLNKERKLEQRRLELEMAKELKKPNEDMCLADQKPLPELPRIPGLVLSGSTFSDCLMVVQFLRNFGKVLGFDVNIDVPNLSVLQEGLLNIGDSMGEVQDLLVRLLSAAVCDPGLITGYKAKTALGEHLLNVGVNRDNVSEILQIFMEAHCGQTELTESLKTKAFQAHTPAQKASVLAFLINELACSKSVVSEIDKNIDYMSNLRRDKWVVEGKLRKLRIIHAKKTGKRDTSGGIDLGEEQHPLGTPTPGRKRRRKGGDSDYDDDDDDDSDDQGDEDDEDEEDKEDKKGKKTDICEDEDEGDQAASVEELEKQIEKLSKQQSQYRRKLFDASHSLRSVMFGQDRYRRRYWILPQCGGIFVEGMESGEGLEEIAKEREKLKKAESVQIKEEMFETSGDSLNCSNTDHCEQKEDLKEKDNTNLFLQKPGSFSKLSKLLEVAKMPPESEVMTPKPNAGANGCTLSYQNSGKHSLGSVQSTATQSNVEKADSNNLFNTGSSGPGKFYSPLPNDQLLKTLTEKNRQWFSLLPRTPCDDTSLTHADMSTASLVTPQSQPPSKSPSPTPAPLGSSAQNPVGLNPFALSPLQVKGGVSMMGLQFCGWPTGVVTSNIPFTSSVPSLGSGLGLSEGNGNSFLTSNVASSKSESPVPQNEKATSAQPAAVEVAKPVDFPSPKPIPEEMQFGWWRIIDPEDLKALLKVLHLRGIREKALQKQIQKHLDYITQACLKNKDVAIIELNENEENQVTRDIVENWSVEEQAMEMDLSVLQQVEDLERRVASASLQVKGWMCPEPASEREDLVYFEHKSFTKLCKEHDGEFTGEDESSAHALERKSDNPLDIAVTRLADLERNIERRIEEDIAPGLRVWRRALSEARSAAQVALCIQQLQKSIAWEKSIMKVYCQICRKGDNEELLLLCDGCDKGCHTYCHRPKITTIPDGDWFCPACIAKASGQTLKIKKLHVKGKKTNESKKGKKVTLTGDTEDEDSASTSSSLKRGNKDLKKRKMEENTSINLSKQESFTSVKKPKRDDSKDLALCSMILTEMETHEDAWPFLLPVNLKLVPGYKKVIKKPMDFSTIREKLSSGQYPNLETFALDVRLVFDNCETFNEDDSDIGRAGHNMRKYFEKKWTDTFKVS
Chain of Histone acetyltransferase KAT2B (Homo sapiens) (Q92831 whole entry, looked up): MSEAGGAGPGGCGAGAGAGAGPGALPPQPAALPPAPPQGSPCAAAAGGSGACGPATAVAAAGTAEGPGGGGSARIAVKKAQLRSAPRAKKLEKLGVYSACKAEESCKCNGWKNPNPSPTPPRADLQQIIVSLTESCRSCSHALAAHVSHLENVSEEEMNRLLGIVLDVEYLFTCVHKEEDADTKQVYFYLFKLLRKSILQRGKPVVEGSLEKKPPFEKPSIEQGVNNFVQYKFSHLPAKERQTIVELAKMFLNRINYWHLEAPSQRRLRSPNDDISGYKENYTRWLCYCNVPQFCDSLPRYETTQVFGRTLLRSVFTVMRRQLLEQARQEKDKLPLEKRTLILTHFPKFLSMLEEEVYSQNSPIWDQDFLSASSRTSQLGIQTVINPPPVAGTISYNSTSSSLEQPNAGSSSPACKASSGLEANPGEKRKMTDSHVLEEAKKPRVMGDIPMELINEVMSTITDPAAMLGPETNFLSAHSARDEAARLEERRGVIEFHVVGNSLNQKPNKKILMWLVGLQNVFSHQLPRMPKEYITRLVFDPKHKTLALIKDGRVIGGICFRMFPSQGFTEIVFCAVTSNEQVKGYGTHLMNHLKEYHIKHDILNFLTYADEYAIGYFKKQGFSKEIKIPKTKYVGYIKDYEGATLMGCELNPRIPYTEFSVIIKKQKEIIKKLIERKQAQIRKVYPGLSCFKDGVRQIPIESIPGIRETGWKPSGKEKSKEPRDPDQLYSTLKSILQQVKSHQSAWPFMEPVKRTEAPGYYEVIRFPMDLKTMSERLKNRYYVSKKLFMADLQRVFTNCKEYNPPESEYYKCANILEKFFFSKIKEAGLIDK

SMILES: Cc1nnc2n1-c1ccc(Cl)cc1C(c1ccccc1)=NN2C
- ΔTm [1]: < 2 °C
- ΔTm [2]: < 2 °C
- ΔTm [3]: < 2 °C
- ΔTm [4]: < 2 °C
- ΔTm [5]: < 2 °C
- ΔTm [6]: < 2 °C
- ΔTm [7]: < 2 °C
- ΔTm [8]: < 2 °C
- ΔTm [9]: < 2 °C
- Activity [10]: Active
- Activity [11]: Active
- Activity [12]: Active
- Activity [13]: Active
- Activity [14]: inactive
- Activity [15]: Active
- Activity [16]: Active
- Activity [17]: Active
- Activity [18]: Active
- ΔTm [19]: < 2 °C
- ΔTm [20]: < 2 °C
- ΔTm [21]: < 2 °C
- Activity [22]: Active
- Activity [23]: Active
- Activity [24]: Active
- ΔTm [25]: 4.2 °C
